According to patent publication US20230286973A1, “PROTEIN SECRETION INHIBITORS” (KEZAR LIFE SCIENCES, priority 2020, published 2023):

Legend:
[1] = Liver Microsome Stability Assay (mouse); conditions: mouse liver microsomes, with NADPH, 1.0 uM compound
Experimental: (§1) Stability of a compound was assessed in the presence of liver microsomes from various sources—mouse, rat, monkey and human liver microsomes. 1.0 uM compound, 0.4% DMSO in 0.1 M Potassium Phosphate with 1.0 mg/mL liver microsomes, were incubated at 37° C. with or without 1 mM NADPH. The samples were quenched at 0, and 30 minutes.

[2] = test system: IL-2-FL/Gaussia Luciferase; assay: Dox Induced IL2-FL-Gluc Assay; type: cell-based; conditions: for IC50: 24 hr Dox induction, 293FRT/TO cells, read-out: 24 hr Dox Inducible IL2FLGluc 293FRT/TO: Mean IC50; for 24 hr Dox Inducible IL2FLGluc 293FRT/TO: IL2/PD1: ratio of IL2FLGluc IC50 to PD1ssGluc IC50
Procedure, shortened: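 A hygromycin- and blasticidin-resistant 293 T-REx clone carrying inducible IL-2–Gaussia luciferase (full-length IL-2, residues 1-153) serves as the cell system. After overnight plating, the cells get test compounds together with doxycycline in DMSO/media and are incubated at 37° C, 5% CO2.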

[3] = test system: HER3-ss+4aa/Gaussia Luciferase; assay: Dox-Induced Her3-ss-Gluc Assay; type: cell-based; conditions: 24 hr Dox induction; 293FRT/TO cells; read-out: 24 hr Dox Inducible Her3(ss + 4)Gluc 293FRT/TO: Mean IC50
Procedure, shortened: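 Doxycycline-inducible HER3 signal sequence+4aa/Gaussia luciferase construct, stably integrated in Flp-In 293 T-REx cells; compound dilutions applied with doxycycline at 37° C., 5% CO2.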

[4] = Liver Microsome Stability Assay (human); conditions: human liver microsomes, with NADPH, 1.0 uM compound
Experimental: as §1

[5] = Liver Microsome Stability Assay (rat); conditions: rat liver microsomes, with NADPH, 1.0 uM compound
Experimental: as §1

[6] = test system: PD1-ss+10aa/Gaussia Luciferase; assay: Dox-Induced PD1-ss-Gluc Assay; type: cell-based; conditions: 24 hr Dox induction; 293FRT/TO cells; read-out: 24 hr Dox Inducible PD1ssGluc 293FRT/TO: Mean IC50
Procedure, shortened: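 Doxycycline-induced expression of a PD1-ss+10aa/Gaussia luciferase reporter is measured in stable Flp-In 293 T-REx cells. Compound dilutions containing doxycycline are added one day after plating and incubated at 37 °C, 5% CO2. Values for unassigned stereocentres refer to stereoisomer mixtures.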

[7] = Liver Microsome Stability Assay (monkey); conditions: monkey liver microsomes, with NADPH, 1.0 uM compound
Experimental: as §1

[8] = test system: multiple myeloma cell line U266B1; assay: U266 Cell Viability Assay; type: cell-based, human; conditions: Homo sapiens, U-266, 48 h, U266B1 cells, Celltiter-Glo
Procedure, shortened: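 After growth in serum-supplemented RPMI 1640, cells received serially diluted compound in DMSO/media and were kept 48 hours before a CellTiter-Glo luminescence readout.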

[9] = test system: multiple myeloma cell line NCI-H929; assay: H929 Cell Viability Assay; type: cell-based, human; conditions: Homo sapiens, NCI-H929, 48 h, NCI-H929 cells, Celltiter-Glo
Procedure, shortened: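 A 48-hour compound treatment of cells in 10% FBS RPMI medium was followed by luciferase-based viability quantification.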

[10] = test system: TNFα-FL/Gaussia Luciferase; assay: Dox Induced TNFα-FL-Gluc Assay; type: cell-based; conditions: for IC50: 24 hr Dox induction, 293FRT/TO cells, read-out: 24 hr Dox Inducible TNFaFLGluc 293FRT/TO: Mean IC50; for 24 hr Dox Inducible TNFaFLGluc 293FRT/TO: TNF/PD1: ratio of TNFaFLGluc IC50 to PD1ssGluc IC50
Procedure, shortened: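 Hygromycin/blasticidin-selected Flp-In 293 T-REx cells, TNFα-FL/Gaussia luciferase fusion under T-REx control; overnight plating, then compound in DMSO/media with doxycycline at 37 °C, 5% CO2; stereo-undefined structures tested as mixtures.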

Row | Liver Microsome Stability (Multiple Species): Mouse - % Remaining after 30 min w/NADPH [1] [%] | IC50 [2] [nM] | IC50 [3] [nM] | Liver Microsome Stability (Multiple Species): Human - % Remaining after 30 min w/NADPH [4] [%] | Liver Microsome Stability (Multiple Species): Rat - % Remaining after 30 min w/NADPH [5] [%] | IC50 [6] [nM] | Liver Microsome Stability (Multiple Species): Monkey - % Remaining after 30 min w/NADPH [7] [%] | EC50 [8] [nM] | EC50 [9] [nM] | IC50 [10] [nM] | Compound | 24 hr Dox Inducible IL2FLGluc 293FRT/TO: IL2/PD1 [2] | 24 hr Dox Inducible TNFaFLGluc 293FRT/TO: TNF/PD1 [10]
1 | 0.24 | 296 | 249 | 0.4 | 4.13 | 108 | 0.29 | 9990 | 3340 | 1880 | CC(=O)N1CCCCC1c1ccc(N2CCC[C@@H]2c2csc(NC(=O)c3cccn3Cc3ccncc3)n2)cc1 (stereo partly drawn) [Compound A58, N-(4-((2R)-1-(4-(1-acetylpiperidin-2-yl)phenyl)pyrrolidin-2-yl)thiazol-2-yl)-1-(pyridin-4-ylmethyl)-1H-pyrrole-2-carboxamide] | 2.7 | 17.4
2 | 52.7 | 29.8 | 35.7 | 34.3 | 45.1 | 15 | 21.4 | > 25000 | 373 | 251 | CC(=O)N1CCC(Oc2ccc(N3CCC[C@@H]3c3csc(NC(=O)c4cccn4Cc4ccnc(F)c4)n3)cc2)CC1 [Compound A62, (R)-N-(4-(1-(4-((1-acetylpiperidin-4-yl)oxy)phenyl)pyrrolidin-2-yl)thiazol-2-yl)-1-((2-fluoropyridin-4-yl)methyl)-1H-pyrrole-2-carboxamide] | 2 | 16.7
3 | 3.64 | 149 | 130 | 2.22 | 6.07 | 80 | 1.18 | > 25000 | 1780 | 1060 | CC(=O)N1CCCC(c2ccc(N3CCC[C@@H]3c3csc(NC(=O)c4cccn4Cc4ccncc4)n3)cc2)C1 (stereo partly drawn) [Compound A63, N-(4-((2R)-1-(4-(1-acetylpiperidin-3-yl)phenyl)pyrrolidin-2-yl)thiazol-2-yl)-1-(pyridin-4-ylmethyl)-1H-pyrrole-2-carboxamide] | 1.9 | 13.2
4 | 13.7 | 27 | 19.4 | 1.39 | 6.39 | 10.6 | 0.78 | > 25000 | 203 | 164 | CC(=O)NCc1ccc(N2CCC[C@@H]2c2csc(NC(=O)c3cccn3Cc3ccnc(F)c3)n2)cc1 [Compound A64, (R)-N-(4-(1-(4-(acetamidomethyl)phenyl)pyrrolidin-2-yl)thiazol-2-yl)-1-((2-fluoropyridin-4-yl)methyl)-1H-pyrrole-2-carboxamide] | 2.5 | 15.4
5 | 7.68 | 7.99 | 6.49 | 22.1 | 1.1 | 2.11 | 0.35 | > 25000 | 81.2 | 65.5 | NC(=O)c1ccc(N2CCC[C@@H]2c2csc(NC(=O)c3cccn3Cc3ccnc(F)c3)n2)cc1 [Compound A65, (R)-N-(4-(1-(4-carbamoylphenyl)pyrrolidin-2-yl)thiazol-2-yl)-1-((2-fluoropyridin-4-yl)methyl)-1H-pyrrole-2-carboxamide] | 3.8 | 31

Second part, the compound before the results:

Row | Compound | Liver Microsome Stability (Multiple Species): Mouse - % Remaining after 30 min w/NADPH [1] [%] | IC50 [2] [nM] | IC50 [3] [nM] | Liver Microsome Stability (Multiple Species): Human - % Remaining after 30 min w/NADPH [4] [%] | Liver Microsome Stability (Multiple Species): Rat - % Remaining after 30 min w/NADPH [5] [%] | IC50 [6] [nM] | Liver Microsome Stability (Multiple Species): Monkey - % Remaining after 30 min w/NADPH [7] [%] | EC50 [8] [nM] | EC50 [9] [nM] | IC50 [10] [nM] | 24 hr Dox Inducible IL2FLGluc 293FRT/TO: IL2/PD1 [2] | 24 hr Dox Inducible TNFaFLGluc 293FRT/TO: TNF/PD1 [10]
6 | O=C(Nc1nc([C@H]2CCCN2c2ccc(CO)cc2)cs1)c1cccn1Cc1ccncc1 [Compound A57, (R)-N-(4-(1-(4-(hydroxymethyl)phenyl)pyrrolidin-2-yl)thiazol-2-yl)-1-(pyridin-4-ylmethyl)-1H-pyrrole-2-carboxamide] | 6.1 | 45.1 | 38.3 | 26.6 | 6.28 | 17.7 | 49.5 | > 25000 | 500 | 287 | 2.5 | 16.2
7 | O=C(Nc1nc([C@H]2CCCN2c2ccc(C3CCCCN3)cc2)cs1)c1cccn1Cc1ccncc1 (stereo partly drawn) [Compound A59, N-(4-((2R)-1-(4-(piperidin-2-yl)phenyl)pyrrolidin-2-yl)thiazol-2-yl)-1-(pyridin-4-ylmethyl)-1H-pyrrole-2-carboxamide] | 49.8 | 6960 | 5060 | 0.62 | 21.3 | 2180 | 2.29 | 6490 | 16000 | 22500 | 3.2 | 10.3
8 | O=C(Nc1nc([C@H]2CCCN2c2ccccc2)cs1)c1cccn1Cc1cc(F)nc(F)c1 [Compound A60, (R)-1-((2,6-difluoropyridin-4-yl)methyl)-N-(4-(1-phenylpyrrolidin-2-yl)thiazol-2-yl)-1H-pyrrole-2-carboxamide] | 48.3 | 186 | 131 | 13.7 | 19.7 | 63.8 | 23.8 | > 25000 | 4720 | 861 | 2.9 | 13.5
9 | O=C(Nc1nc([C@H]2CCCN2c2ccc(C3CCCNC3)cc2)cs1)c1cccn1Cc1ccncc1 (stereo partly drawn) [Compound A61, N-(4-((2R)-1-(4-(piperidin-3-yl)phenyl)pyrrolidin-2-yl)thiazol-2-yl)-1-(pyridin-4-ylmethyl)-1H-pyrrole-2-carboxamide] | 54.5 | 3220 | 1570 | 2.45 | 22.8 | 917 | 5.11 | 5520 | 6290 | 11600 | 3.5 | 12.7
